One test concerns MOLT-4. Nature of the test: Antiproliferative activity against human MOLT-4 cells assessed as inhibition of cell growth measured after 48 hrs by MTS assay. In kind it is functional, cell-based. Particulars: MOLT-4, 48 h. For orientation: Tetrazolium assays rely on reduction of a dye to a coloured formazan, in cell work by metabolically active cells.
The subject of another test is RS4-11. Nature of the test: Antiproliferative activity against human RS4-11 cells assessed as inhibition of cell growth measured after 48 hrs by MTS assay. The test is classed as functional, cell-based. Particulars: RS4-11, 48 h.

pIC50: −log10 of the molar value.

On to `Cc1ncsc1-c1ccc([C@H](C)NC(=O)[C@@H]2C[C@@H](O)CN2C(=O)[C@@H](NC(=O)CCCCC(=O)N2CCN(C3CCN(C[C@]4(C)CCC(c5ccc(Cl)cc5)=C(CN5CCN(c6ccc(C(=O)NS(=O)(=O)c7ccc(N[C@H](CCN8CCCOCC8)CSc8ccccc8)c(S(=O)(=O)C(F)(F)F)c7)cc6)CC5)C4)CC3)CC2)C(C)(C)C)cc1`, for which the pIC50 with MOLT-4 and in the test on RS4-11 was greater than 7.70 each time.

As for `Cc1ncsc1-c1ccc([C@H](C)NC(=O)[C@@H]2C[C@@H](O)CN2C(=O)[C@@H](NC(=O)CN(C)CC(=O)N2CCC(C3CCN(C[C@]4(C)CCC(c5ccc(Cl)cc5)=C(CN5CCN(c6ccc(C(=O)NS(=O)(=O)c7ccc(N[C@H](CCN8CCCOCC8)CSc8ccccc8)c(S(=O)(=O)C(F)(F)F)c7)cc6)CC5)C4)CC3)CC2)C(C)(C)C)cc1`, the pIC50 in the test with MOLT-4 and with RS4-11 was greater than 7.70 throughout.

With `Cc1ncsc1-c1ccc([C@H](C)NC(=O)[C@@H]2C[C@@H](O)CN2C(=O)[C@@H](NC(=O)CN(C)CCC(=O)N2CCC(C3CCN(C[C@]4(C)CCC(c5ccc(Cl)cc5)=C(CN5CCN(c6ccc(C(=O)NS(=O)(=O)c7ccc(N[C@H](CCN8CCCOCC8)CSc8ccccc8)c(S(=O)(=O)C(F)(F)F)c7)cc6)CC5)C4)CC3)CC2)C(C)(C)C)cc1`, the pIC50 in the test with MOLT-4 and in the test with RS4-11 was greater than 7.70 throughout.

The record behind these values is ChEMBL document CHEMBL5365514, “Redefining Cancer Therapy: Toward BCL-XL/BCL-2 Dual Inhibitors with Diminished Platelet Toxicity” (ACS Med Chem Lett, 2023).
